| melting point | SMILES |
| --- | --- |
| 118 to 121 °C (dec.) | COC(=O)N[C@H](C(=O)N[C@@H](Cc1ccccc1)[C@@H](O)CN(Cc1ccc(N2CCCC2)cc1)NC(=O)[C@@H](NC(=O)OC)C(C)(C)C)C(C)C [Example 11, 1-[p-(Pyrrolidin-1-yl)phenyl]-4(S)-hydroxy-2-[N-(N-methoxycarbonyl-(L)-tert-leucyl)amino]-5(S)-[N-(N-methoxycarbonyl-(L)-valyl)amino]-6-phenyl-2-azahexane] |
| 158 to 161 °C | CC[C@H](C)[C@H](NC(=O)OC)C(=O)NN(Cc1ccc(N2CCCC2)cc1)C[C@H](O)[C@H](Cc1ccccc1)NC(=O)[C@@H](NC(=O)OC)C(C)(C)C [Example 9, 1-[p-(Pyrrolidin-1-yl)phenyl]-4(S)-hydroxy-2-[N-(N-methoxycarbonyl-(L)-isoleucyl)amino]-5(S)-[N-(N-methoxycarbonyl-(L)-tert-leucyl)amino]-6-phenyl-2-azahexane] |

— patent US6451973B1, “Anilinopeptide derivatives” (Novatis AG, priority 1996, dated 2002)
